Tests used:
Type in all cases: in vivo
[1] = system: transplanted Oryza sativa; experiment: Test Example 1: effect on crop, application before weed generation in submerged conditions; conditions: Application herbicide amount 320 g/ha; Seventeenth Table
Summary of the method: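 Pre-emergence application to water surface of submerged pots (4 cm depth, alluvial soil) on sowing day, with 2.5-leaf rice transplanted; emulsion diluted to g/ha rates. Grown in greenhouse at 25–30 °C; 0–5 herbicidal/crop-effect score after three weeks.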

Abutilon theophrasti = experiment: Test Example 4: herbicidal effect by application to foliage (diluvial soil, plastic box); conditions: application to foliage, application herbicide amount 320 g/ha
Summary of the method: (§1)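 Plants were grown in sterilized diluvial soil in a greenhouse at 25-30° C for 14 days, then sprayed on stems and leaves with water-diluted emulsion formulation at set rates in g/ha. Weed control and crop injury were scored 3 weeks after treatment on a 0-5 herbicidal-ratio scale, from 0 (≤5%) to 5 (≥90%).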

Alopecurus myosuroides = experiment: as above; conditions: application to foliage, application herbicide amount 320 g/ha
Summary of the method: as §1

Amaranthus retroflexus = experiment: as above; conditions: application to foliage, application herbicide amount 320 g/ha
Summary of the method: as §1

Apera spica-venti. = experiment: as above; conditions: application to foliage, application herbicide amount 320 g/ha
Summary of the method: as §1

Avena fatua = experiment: as above; conditions: application to foliage, application herbicide amount 320 g/ha
Summary of the method: as §1

Chenopodium album = experiment: as above; conditions: application to foliage, application herbicide amount 320 g/ha
Summary of the method: as §1

Digitaria ciliaris = experiment: as above; conditions: application to foliage, application herbicide amount 320 g/ha
Summary of the method: as §1

[2] = system: Echinochloa crus-galli var. crus-galli; experiment: as above; conditions: application to foliage, application herbicide amount 320 g/ha
Summary of the method: as §1

Galium spurium = experiment: as above; conditions: application to foliage, application herbicide amount 320 g/ha
Summary of the method: as §1

Lolium multiflorum Lam. = experiment: as above; conditions: application to foliage, application herbicide amount 320 g/ha
Summary of the method: as §1

Setaria viridis = experiment: as above; conditions: application to foliage, application herbicide amount 320 g/ha
Summary of the method: as §1

Stellaria media = experiment: as above; conditions: application to foliage, application herbicide amount 320 g/ha
Summary of the method: as §1

Veronica persica = experiment: as above; conditions: application to foliage, application herbicide amount 320 g/ha
Summary of the method: as §1

[3] = system: Beta vulgaris ssp. vulgaris; experiment: Test Example 4: effect on crop by application to foliage (diluvial soil, plastic box); conditions: application to foliage, application herbicide amount 320 g/ha
Summary of the method: as §1

Brassica campestris L. = experiment: as above; conditions: application to foliage, application herbicide amount 320 g/ha
Summary of the method: as §1

Glycine max = experiment: as above; conditions: application to foliage, application herbicide amount 320 g/ha
Summary of the method: as §1

Triticum aestivum = experiment: as above; conditions: application to foliage, application herbicide amount 320 g/ha
Summary of the method: as §1

Zea mays = experiment: as above; conditions: application to foliage, application herbicide amount 320 g/ha
Summary of the method: as §1

[4] = system: directly sowed Oryza sativa; experiment: as above; conditions: application to foliage, application herbicide amount 320 g/ha
Summary of the method: as §1

SMILES | a: transplanted Oryza sativa (effect on crop grade) [1] | M: herbicidal effect on Abutilon theophrasti (Abutilon theophrasti) | J: herbicidal effect on Alopecurus myosuroides (Alopecurus myosuroides) | N: herbicidal effect on Amaranthus retroflexus (Amaranthus retroflexus) | L: herbicidal effect on Apera spica-venti. (Apera spica-venti.) | I: herbicidal effect on Avena fatua (Avena fatua) | O: herbicidal effect on Chenopodium album (Chenopodium album) | F: herbicidal effect on Digitaria ciliaris (Digitaria ciliaris) | H: herbicidal effect on Echinochloa crus-galli var. crus-galli [2] | Q: herbicidal effect on Galium spurium (Galium spurium) | K: herbicidal effect on Lolium multiflorum Lam. (Lolium multiflorum Lam.) | G: herbicidal effect on Setaria viridis (Setaria viridis) | P: herbicidal effect on Stellaria media (Stellaria media) | R: herbicidal effect on Veronica persica (Veronica persica) | f: effect on crop, Beta vulgaris ssp. vulgaris [3] | g: effect on crop, Brassica campestris L. (Brassica campestris L.) | d: effect on crop, Glycine max (Glycine max) | e: effect on crop, Triticum aestivum (Triticum aestivum) | c: effect on crop, Zea mays (Zea mays) | b: effect on crop, directly sowed Oryza sativa [4]
CCC(C)c1nnc2c(C(=O)Nc3nnnn3C)ccc(C(F)(F)F)n12 (centres unmarked) [2-016] | 4 (Herbicidal ratio of 70% or more and less than 90%) | 5 (Herbicidal ratio of 90% or more (almost completely withered)) | 4 (Herbicidal ratio of 70% or more and less than 90%) | 5 (Herbicidal ratio of 90% or more (almost completely withered)) | 4 (Herbicidal ratio of 70% or more and less than 90%) | 4 (Herbicidal ratio of 70% or more and less than 90%) | 5 (Herbicidal ratio of 90% or more (almost completely withered)) | 5 (Herbicidal ratio of 90% or more (almost completely withered)) | 5 (Herbicidal ratio of 90% or more (almost completely withered)) | 3 (Herbicidal ratio of 40% or more and less than 70%) | 4 (Herbicidal ratio of 70% or more and less than 90%) | 5 (Herbicidal ratio of 90% or more (almost completely withered)) | 5 (Herbicidal ratio of 90% or more (almost completely withered)) | 5 (Herbicidal ratio of 90% or more (almost completely withered)) | 5 (Herbicidal ratio of 90% or more (almost completely withered)) | 4 (Herbicidal ratio of 70% or more and less than 90%) | 4 (Herbicidal ratio of 70% or more and less than 90%) | 4 (Herbicidal ratio of 70% or more and less than 90%) | 1 (Herbicidal ratio of 5% or more and less than 20%) | 5 (Herbicidal ratio of 90% or more (almost completely withered))
Cc1cc(-c2nnc3c(C(=O)Nc4nnnn4C)ccc(C(F)(F)F)n23)no1 [2-017] | 4 (Herbicidal ratio of 70% or more and less than 90%) | 5 (Herbicidal ratio of 90% or more (almost completely withered)) | 3 (Herbicidal ratio of 40% or more and less than 70%) | 5 (Herbicidal ratio of 90% or more (almost completely withered)) | 4 (Herbicidal ratio of 70% or more and less than 90%) | 4 (Herbicidal ratio of 70% or more and less than 90%) | 5 (Herbicidal ratio of 90% or more (almost completely withered)) | 5 (Herbicidal ratio of 90% or more (almost completely withered)) | 5 (Herbicidal ratio of 90% or more (almost completely withered)) | 1 (Herbicidal ratio of 5% or more and less than 20%) | 2 (Herbicidal ratio of 20% or more and less than 40%) | 5 (Herbicidal ratio of 90% or more (almost completely withered)) | 5 (Herbicidal ratio of 90% or more (almost completely withered)) | 5 (Herbicidal ratio of 90% or more (almost completely withered)) | 5 (Herbicidal ratio of 90% or more (almost completely withered)) | 4 (Herbicidal ratio of 70% or more and less than 90%) | 4 (Herbicidal ratio of 70% or more and less than 90%) | 3 (Herbicidal ratio of 40% or more and less than 70%) | 1 (Herbicidal ratio of 5% or more and less than 20%) | 5 (Herbicidal ratio of 90% or more (almost completely withered))
CCCc1nnc2c(C(=O)Nc3nnnn3C)ccc(C(F)(F)F)n12 [2-019] | 2 (Herbicidal ratio of 20% or more and less than 40%) | 5 (Herbicidal ratio of 90% or more (almost completely withered)) | 2 (Herbicidal ratio of 20% or more and less than 40%) | 5 (Herbicidal ratio of 90% or more (almost completely withered)) | 4 (Herbicidal ratio of 70% or more and less than 90%) | 3 (Herbicidal ratio of 40% or more and less than 70%) | 5 (Herbicidal ratio of 90% or more (almost completely withered)) | 5 (Herbicidal ratio of 90% or more (almost completely withered)) | 5 (Herbicidal ratio of 90% or more (almost completely withered)) | 3 (Herbicidal ratio of 40% or more and less than 70%) | 2 (Herbicidal ratio of 20% or more and less than 40%) | 5 (Herbicidal ratio of 90% or more (almost completely withered)) | 5 (Herbicidal ratio of 90% or more (almost completely withered)) | 5 (Herbicidal ratio of 90% or more (almost completely withered)) | 5 (Herbicidal ratio of 90% or more (almost completely withered)) | 4 (Herbicidal ratio of 70% or more and less than 90%) | 4 (Herbicidal ratio of 70% or more and less than 90%) | 3 (Herbicidal ratio of 40% or more and less than 70%) | 0 (Herbicidal ratio of 5% or less (almost no effect)) | 4 (Herbicidal ratio of 70% or more and less than 90%)
Cn1nnnc1NC(=O)c1ccc(C(F)(F)F)n2c(COc3ccccc3)nnc12 [2-020] | 1 (Herbicidal ratio of 5% or more and less than 20%) | 5 (Herbicidal ratio of 90% or more (almost completely withered)) | 0 (Herbicidal ratio of 5% or less (almost no effect)) | 4 (Herbicidal ratio of 70% or more and less than 90%) | 1 (Herbicidal ratio of 5% or more and less than 20%) | 1 (Herbicidal ratio of 5% or more and less than 20%) | 5 (Herbicidal ratio of 90% or more (almost completely withered)) | 3 (Herbicidal ratio of 40% or more and less than 70%) | 3 (Herbicidal ratio of 40% or more and less than 70%) | 2 (Herbicidal ratio of 20% or more and less than 40%) | 1 (Herbicidal ratio of 5% or more and less than 20%) | 3 (Herbicidal ratio of 40% or more and less than 70%) | 4 (Herbicidal ratio of 70% or more and less than 90%) | 4 (Herbicidal ratio of 70% or more and less than 90%) | 5 (Herbicidal ratio of 90% or more (almost completely withered)) | 3 (Herbicidal ratio of 40% or more and less than 70%) | 3 (Herbicidal ratio of 40% or more and less than 70%) | 1 (Herbicidal ratio of 5% or more and less than 20%) | 0 (Herbicidal ratio of 5% or less (almost no effect)) | 2 (Herbicidal ratio of 20% or more and less than 40%)

Source: patent US9708314B2, “Heterocyclic amide compound” (NISSAN CHEMICAL INDUSTRIES, LTD., priority 2013, dated 2017)
